Results as given in PubChem BioAssay AID2060484 (Molecular Pharmacology Branch, DTP, NCI, 2025).

Test system: SUM149PT spheroids with HUVEC/MSC, viability
Assay: Anticancer human tumor SUM149PT cell line growth inhibition [GQUAD];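 note: spheroids exposed to drugs for seven days before readout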;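 for viability, T/C: percent viability relative to DMSO vehicle control taken as 100%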
Settings: for IC50: curve of first compound; for viability, T/C: stronger effect = lower value
Outline: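 Multi-cell-type spheroids of tumor cells with HUVEC and mesenchymal stem cells, treated with drug combinations. Concentrations descend in half-log steps from near clinical Cmax, or from 10 microM where Cmax is unknown; viability read-out.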

[1] = second compound 0.0316 µM, first compound 0.0316 µM
[2] = second compound 0.0316 µM, first compound 0.316 µM
[3] = second compound 0.1 µM, first compound 0.0316 µM
[4] = second compound 0.1 µM, first compound 0.316 µM
[5] = second compound 0.316 µM, first compound 0.0316 µM
[6] = second compound 0.316 µM, first compound 0.316 µM
[7] = second compound 1 µM, first compound 0.0316 µM
[8] = second compound 1 µM, first compound 0.316 µM
[9] = second compound 3.16 µM, first compound 0.0316 µM
[10] = second compound 3.16 µM, first compound 0.316 µM
[11] = second compound 10 µM, first compound 0.0316 µM
[12] = second compound 10 µM, first compound 0.316 µM
[13] = second compound 0.0316 µM, first compound 0.1 µM
[14] = second compound 0.0316 µM, first compound 1 µM
[15] = second compound 0.0316 µM, first compound 3.16 µM
[16] = second compound 0.0316 µM, first compound 10 µM
[17] = second compound 0.1 µM, first compound 0.1 µM
[18] = second compound 0.1 µM, first compound 1 µM
[19] = second compound 0.1 µM, first compound 3.16 µM
[20] = second compound 0.1 µM, first compound 10 µM
[21] = second compound 0.316 µM, first compound 0.1 µM
[22] = second compound 0.316 µM, first compound 1 µM
[23] = second compound 0.316 µM, first compound 3.16 µM
[24] = second compound 0.316 µM, first compound 10 µM
[25] = second compound 1 µM, first compound 0.1 µM
[26] = second compound 1 µM, first compound 1 µM
[27] = second compound 1 µM, first compound 3.16 µM
[28] = second compound 1 µM, first compound 10 µM
[29] = second compound 3.16 µM, first compound 0.1 µM
[30] = second compound 3.16 µM, first compound 1 µM
[31] = second compound 3.16 µM, first compound 3.16 µM
[32] = second compound 3.16 µM, first compound 10 µM
[33] = second compound 10 µM, first compound 0.1 µM
[34] = second compound 10 µM, first compound 1 µM
[35] = second compound 10 µM, first compound 3.16 µM
[36] = second compound 10 µM, first compound 10 µM

In the case of `CCc1c2c(nc3ccc(O)cc13)-c1cc3c(c(=O)n1C2)COC(=O)[C@]3(O)CC` + Cc1cnc(CNC(=O)c2c(=O)c3ccc(N4CCCN(C)CC4)nc3n3c2sc2ccccc23)cn1, the IC50 (second compound 0.0316 µM) is reported as under 0.999 nM, the IC50 (second compound 0.1 µM) is reported as under 0.999 nM and the IC50 (second compound 0.316 µM) is reported as under 0.999 nM. It also gave an IC50 (second compound 1 µM) of under 0.999 nM, an IC50 (second compound 3.16 µM) of under 0.999 nM and an IC50 (second compound 10 µM) of under 0.999 nM. It also gave a viability, T/C (second compound 0.0316 µM, first compound 0.000999 µM) of 45%, a viability, T/C (second compound 0.0316 µM, first compound 0.00316 µM) of 30.6% and a viability, T/C (second compound 0.0316 µM, first compound 0.00999 µM) of 42.1%. The viability, T/C [1] was 30.6%, the viability, T/C (second compound 0.0316 µM, first compound 0.0999 µM) was 25.9% and the viability, T/C [2] was 12.1%. It also gave a viability, T/C (second compound 0.1 µM, first compound 0.000999 µM) of 38.9%, a viability, T/C (second compound 0.1 µM, first compound 0.00316 µM) of 40.9% and a viability, T/C (second compound 0.1 µM, first compound 0.00999 µM) of 44.6%. The viability, T/C [3] was 38.9%, the viability, T/C (second compound 0.1 µM, first compound 0.0999 µM) was 25.1% and the viability, T/C [4] was 10.2%. The viability, T/C (second compound 0.316 µM, first compound 0.000999 µM) was 38.7%, the viability, T/C (second compound 0.316 µM, first compound 0.00316 µM) was 42.8% and the viability, T/C (second compound 0.316 µM, first compound 0.00999 µM) was 41.1%. It also gave a viability, T/C [5] of 33.8%, a viability, T/C (second compound 0.316 µM, first compound 0.0999 µM) of 21.8% and a viability, T/C [6] of 10.8%. For the same compound, the viability, T/C (second compound 1 µM, first compound 0.000999 µM) was 37%, the viability, T/C (second compound 1 µM, first compound 0.00316 µM) was 41.2% and the viability, T/C (second compound 1 µM, first compound 0.00999 µM) was 37.1%. For the same compound, the viability, T/C [7] was 35.5%, the viability, T/C (second compound 1 µM, first compound 0.0999 µM) was 19.7% and the viability, T/C [8] was 8.28%. The viability, T/C (second compound 3.16 µM, first compound 0.000999 µM) was 33.1%, the viability, T/C (second compound 3.16 µM, first compound 0.00316 µM) was 38.7% and the viability, T/C (second compound 3.16 µM, first compound 0.00999 µM) was 37.1%. It also gave a viability, T/C [9] of 31%, a viability, T/C (second compound 3.16 µM, first compound 0.0999 µM) of 21.9% and a viability, T/C [10] of 3.55%. The viability, T/C (second compound 10 µM, first compound 0.000999 µM) was 0.16%, the viability, T/C (second compound 10 µM, first compound 0.00316 µM) was 3.09% and the viability, T/C (second compound 10 µM, first compound 0.00999 µM) was 0.98%. It also gave a viability, T/C [11] of 1.56%, a viability, T/C (second compound 10 µM, first compound 0.0999 µM) of 1.51% and a viability, T/C [12] of 1.72%.

Compound `CC(C)n1c(=O)n(C)c2cnc3cc(F)c(-c4ccc(OCCCN5CCCCC5)nc4)cc3c21` + Cc1[nH]c2ccc(F)cc2c1-c1nc2c3cccnc3c3ncccc3c2[nH]1 has an IC50 (second compound 0.0316 µM) of over 10000 nM, an IC50 (second compound 0.1 µM) of over 10000 nM and an IC50 (second compound 0.316 µM) of over 10000 nM. It also gave an IC50 (second compound 1 µM) of over 10000 nM, an IC50 (second compound 3.16 µM) of over 10000 nM and an IC50 (second compound 10 µM) of over 10000 nM. It also gave a viability, T/C [1] of 86.3%, a viability, T/C [13] of 80.9% and a viability, T/C [2] of 104%. For the same compound, the viability, T/C [14] was 96.4%, the viability, T/C [15] was 98.1% and the viability, T/C [16] was 67.7%. The viability, T/C [3] was 97.8%, the viability, T/C [17] was 90.8% and the viability, T/C [4] was 88%. The viability, T/C [18] was 101%, the viability, T/C [19] was 98.5% and the viability, T/C [20] was 73%. It also gave a viability, T/C [5] of 99.3%, a viability, T/C [21] of 91.3% and a viability, T/C [6] of 95%. It also gave a viability, T/C [22] of 103%, a viability, T/C [23] of 93.8% and a viability, T/C [24] of 73.2%. The viability, T/C [7] was 94.8%, the viability, T/C [25] was 96.4% and the viability, T/C [8] was 95.7%. For the same compound, the viability, T/C [26] was 97.5%, the viability, T/C [27] was 105% and the viability, T/C [28] was 69.4%. It also gave a viability, T/C [9] of 89.9%, a viability, T/C [29] of 91.5% and a viability, T/C [10] of 97.5%. It also gave a viability, T/C [30] of 92.5%, a viability, T/C [31] of 99.8% and a viability, T/C [32] of 64.3%. The viability, T/C [11] was 94.5%, the viability, T/C [33] was 77.6% and the viability, T/C [12] was 89%. The viability, T/C [34] was 92.5%, the viability, T/C [35] was 94.8% and the viability, T/C [36] was 62.5%.

`COc1cccc2c1C(=O)c1c(O)c3c(c(O)c1C2=O)CC(O)(C(=O)CO)CC3OC1CC(N)C(O)C(C)O1` (stereo unspecified) + Cc1cnc(CNC(=O)c2c(=O)c3ccc(N4CCCN(C)CC4)nc3n3c2sc2ccccc23)cn1 showed an IC50 (second compound 0.0316 µM) of 112 nM, an IC50 (second compound 0.1 µM) of 97.9 nM and an IC50 (second compound 0.316 µM) of 75.9 nM. For the same compound, the IC50 (second compound 1 µM) was under 31.6 nM, the IC50 (second compound 3.16 µM) was under 31.6 nM and the IC50 (second compound 10 µM) was under 31.6 nM. The viability, T/C [1] was 66.9%, the viability, T/C [13] was 48.3% and the viability, T/C [2] was 36.2%. It also gave a viability, T/C [14] of 13.1%, a viability, T/C [15] of 1.37% and a viability, T/C [16] of 2.54%. For the same compound, the viability, T/C [3] was 57.7%, the viability, T/C [17] was 47.1% and the viability, T/C [4] was 36.3%. The viability, T/C [18] was 15.2%, the viability, T/C [19] was 1.96% and the viability, T/C [20] was 1.69%. The viability, T/C [5] was 57.3%, the viability, T/C [21] was 45.9% and the viability, T/C [6] was 34.1%. The viability, T/C [22] was 16.2%, the viability, T/C [23] was 2.74% and the viability, T/C [24] was 3.01%. For the same compound, the viability, T/C [7] was 44.2%, the viability, T/C [25] was 43.7% and the viability, T/C [8] was 30.1%. For the same compound, the viability, T/C [26] was 15.9%, the viability, T/C [27] was 0.7% and the viability, T/C [28] was 1.88%. It also gave a viability, T/C [9] of 36.5%, a viability, T/C [29] of 35.7% and a viability, T/C [10] of 28.9%. The viability, T/C [30] was 13%, the viability, T/C [31] was 1.22% and the viability, T/C [32] was 1.18%. The viability, T/C [11] was 0.13%, the viability, T/C [33] was 1.99% and the viability, T/C [12] was 15.3%. The viability, T/C [34] was 0.37%, the viability, T/C [35] was 0.4% and the viability, T/C [36] was 1.84%.
